In US20070020194A1, “Nasally administered appetite suppressant” (priority 2005, published 2007):
Where “and” joins values, the source holds several entries; their conditions need not be identical. Equal entries are not always repeated.

Key:
[1] = cited from earlier work
[2] = applied topically; cited from earlier work
[3] = 70 kg adult; cited from earlier work
[4] = Food intake study, intranasal lidocaine vs saline before a test meal; format: in vivo, human
Description: Three males and one female between 23 and 60 years of age with BMI's less than 25 kg/m2 participated in a study of food intake. The subjects presented to the food intake laboratory at noon after an overnight fast except for water from 9 pm the prior night on two occasions a week apart. They had 10 mg (0.5 cc) of lidocaine or 0.5 cc normal saline administered in each nostril 20 minutes before presentation of a meal consisting of fried chicken pieces and water. They were allowed to eat and drink as much or as little as they wished over a 20-minute period, and there were more chicken pieces than they could reasonably be expected to eat at one sitting. The order of the lidocaine and saline was balanced and the study was performed in a double-blind fashion.
The four subjects consumed 15%, 11%, 27% and 33% less on the lidocaine week compared to the placebo week. […] Sibutramine, an obesity drug, gives an 8% weight loss at 6 months and causes a 12% decrease in food intake.

Row | SMILES | weight loss ([1]; at 6 months) [%] | decrease in food intake ([1]; in vivo) [%] | duration of anesthesia [2] [min] | time to peak anesthesia [2] [min] | maximum safe dosage for topical anesthetic [3] [mg] | less food consumed on the lidocaine week compared to the placebo week (individual subjects) ([4]; 10 mg (0.5 cc) lidocaine in each nostril 20 minutes before meal, 20-minute meal of fried chicken pieces, four subjects, BMI less than 25 kg/m2) | overall reduction in food intake ([4]; 10 mg lidocaine per nostril vs saline, four subjects, p<0.02) [%+10.2%] | weight loss that might result if the food intake reduction is sustained ([4]; extrapolated from pilot study by comparison with sibutramine) [%]
1 | CC(C)CC(N(C)C)C1(c2ccc(Cl)cc2)CCC1 (centres unmarked) [Sibutramine] | 8 | 12 | – | – | – | – | – | –
2 | CCN(CC)CC(=O)Nc1c(C)cccc1C [lidocaine] | – | – | 30 to 45 | 2 to 5 | 500 | 15% and 11% and 27% and 33% | 21.5 | ≤ 14
